# Tests used:
# Format in all cases: cell-based
# INS1 cells [1] = assay: Western blot for mitochondrial proteins; settings: 24 h
# Procedure: INS1 cells expressing Mitotimer under EF-1 alpha promoter were treated for 18 hours with rapamycin (100 nM). […] FIGS. 2B and 2C show a Western blot for mitochondrial proteins upon treatment with rapamycin. Note that rapamycin increased mitochondrial mass.
# Cell treatments and mitochondrial extraction. INS1 cells were treated with SBP08007 or MWP00839 25 uM for 24 h. Mitochondrial and cytosolic fractions from INS1 cells were performed by using the Mitochondria Isolation Kit for Cultured Cells (Pierce). INS1 cells were lysed in a hypotonic buffer (10 mM NaCl, 1.5 mM MgCl2, and 10 mM Tris.HCl, pH 7.5), and mitochondria were extracted in a Dounce homogenizer in mitochondrial buffer (1 mM EDTA, 210 mM mannitol, 70 mM sucrose, and 5 mM Tris.HCl, 7.5), followed by centrifugation at 1,300×g for 10 min at 4° C. The supernatant was further centrifuged at 17,000×g for 15 min at 4° C. to pellet the mitochondria. The crude mitochondrial fraction was resuspended for washing and centrifuged at 17,000×g for 15 min at 4° C. The pellets were collected as the mitochondrial fraction.
# Western blot. Cell lysates were diluted in Laemmli sample buffer (100 mM Tris-HCl, 2% SDS, 10% glycerol, 0.1% bromophenol blue) containing 5% beta-mercaptoethanol. After heating at 95° C. for 5 min, proteins were separated by SDS-PAGE previously added of Stain Free reagent (BioRad), and transferred onto PVDF membranes. Membranes were blocked with 5% non-fat milk and detection of individual proteins was carried out by blotting with specific primary antibodies against ubiquitin (Calbiochem 1:1,000). Chemiluminescence detection using a secondary peroxidase-linked anti-rabbit (Calbiochem; 1:10,000) and a detection system from Pierce KLP (Rockford, Ill., USA) was performed. Stain free total protein labeling was imaged in Image Lab 6.0 Software (BioRad), which was used for quantification of the mitochondria and normalization to total protein staining.
# INS1 cells [2] = assay: Lipotoxicity (palmitate) protection and recovery
# Procedure: In FIGS. 4A and 4B: INS1 cells were treated with either DMSO (control), SPB08007 (25 μM), or MWP00839 (25 μM) for 18 hours and were subjected to an Oxygen consumption rate (OCR) test. Viability test (using XTT staining) was determined after 24 hours exposure. […] In FIG. 4C: INS1 cells were treated with 400 μM palmitate (1:5 BSA palmitate) for 24 hours and were then let to recover in presence or absence of SPB08007 (“SBP”) for 18 hours. n=4 (paired t-test).
# To address the potential beneficiary effect of mitochondrial clearance by SPB08007 (compound of structural Formula 6), we employed lipotoxicity, a model that we have previously reported to impair autophagy and mitochondrial clearance by alkalization of the lysosomes (Las, G., et al., Fatty acids suppress autophagic turnover in beta-cells. J Biol Chem, 2011.286 (49): p. 42534-44).
# INS1 cells [3] = assay: Anion radical superoxide (Mitosox); settings: 25 uM
# Procedure: INS1 cells were treated for 24 h with SPB08007 (25 uM) or DMSO (0.1%). Mitochondrial membrane potential was analyzed cell by cell through TMRE staining corrected by Mitotracker Green (MTG). Cells were imaged using a 100× Plan Neofluar objective and the Airyscan module of a Zeiss LSM880 confocal microscope. […] Each experiment was repeated 2 times, 59-85 cells of each group were analyzed in each experiment for TMRE/MTG, and 48 fields were analyzed in each experiment for Mitosox analysis. *p<0.05 vs. DMSO; ***p<0.05 vs. DMSO and SPB08007.
# Mitotracker Green Fluorescence, Anion Radical Superoxide and Mitochondrial Membrane Potential. INS1 cells were seeded into wells of a 96-wells glass bottom cell culture plate (CELLSTAR) at a density of 2*10^4 cells/well. To assess mitochondrial clearance, a pulse-chase experiment was performed. Briefly, cells were stained with MTG (Molecular Probes) 500 nM for 30 min, washed, and treated with (25 uM) or DMSO 0.1%. After 18 h, cells were imaged using a 40× lens of a Perkin Elmer Operetta high-content imaging system microscope. Results are expressed as the percentage of MTG fluorescence relative to MTG fluorescence of the “time 0” control. […] Integrated fluorescence of each field was analyzed in Image J after background subtraction and threshold (IsoData) application. Twenty-four fields of each condition were analyzed in each experiment.
structure (smiles),measurement,setting,value
CC(=O)N/C(=C\c1sc2ccccc2c1C)C(=O)O [SPB08007],CI-NDFUB8 levels,INS1 cells [1]; 25 uM,unaffected
same,SDHB (Complex II) protein level increase,"INS1 cells [1]; 25 uM, relative to DMSO",2 fold
same,UQCRC2 (Complex III) protein level increase,"INS1 cells [1]; 25 uM, relative to DMSO",1.5 fold
same,overall mitochondrial protein,INS1 cells [1],reduces
same,recovery after palmitate,"INS1 cells [2]; 400 μM palmitate 24 hours, then 18 hours recovery with compound",slight but significant increase in recovery
same,"protection from palmitate, co-treatment",INS1 cells [2]; co-treatment with palmitate for 18 hours,did not show any protection
same,anion radical superoxide formation (Mitosox),INS1 cells [3],unaffected
